Measurements reported in US20090176696A1, “Methods And Compositions For Modulating An Immune Response” (priority 2006, published 2009).

Assays:
murine NOD1 = molecular target: T1, murine NOD1 (Mus musculus, UniProt Q8BHB0); conditions: cited from earlier work
T1 sequence (Q8BHB0 1-953): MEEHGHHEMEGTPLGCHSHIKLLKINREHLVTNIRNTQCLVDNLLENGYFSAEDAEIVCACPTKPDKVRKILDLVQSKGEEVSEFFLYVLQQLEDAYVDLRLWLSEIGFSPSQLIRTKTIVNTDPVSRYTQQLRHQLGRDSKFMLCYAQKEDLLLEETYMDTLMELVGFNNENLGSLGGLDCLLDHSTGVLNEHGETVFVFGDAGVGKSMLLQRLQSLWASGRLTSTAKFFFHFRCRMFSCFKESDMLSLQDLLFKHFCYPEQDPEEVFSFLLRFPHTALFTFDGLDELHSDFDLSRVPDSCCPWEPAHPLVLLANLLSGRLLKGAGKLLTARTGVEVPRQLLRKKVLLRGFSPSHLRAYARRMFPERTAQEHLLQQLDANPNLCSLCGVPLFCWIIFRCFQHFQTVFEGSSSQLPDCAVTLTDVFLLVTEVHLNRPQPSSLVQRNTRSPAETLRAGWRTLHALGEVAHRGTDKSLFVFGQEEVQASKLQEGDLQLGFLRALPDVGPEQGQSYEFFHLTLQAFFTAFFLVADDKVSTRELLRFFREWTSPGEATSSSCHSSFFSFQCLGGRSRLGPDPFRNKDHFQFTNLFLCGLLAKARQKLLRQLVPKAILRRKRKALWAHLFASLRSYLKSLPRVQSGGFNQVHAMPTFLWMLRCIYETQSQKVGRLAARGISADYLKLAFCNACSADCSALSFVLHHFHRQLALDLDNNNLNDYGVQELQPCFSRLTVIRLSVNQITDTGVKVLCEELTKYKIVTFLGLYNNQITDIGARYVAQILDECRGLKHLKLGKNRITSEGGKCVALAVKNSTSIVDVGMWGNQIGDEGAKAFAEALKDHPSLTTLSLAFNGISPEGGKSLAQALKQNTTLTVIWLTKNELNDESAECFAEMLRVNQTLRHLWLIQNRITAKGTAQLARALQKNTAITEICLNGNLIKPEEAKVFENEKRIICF

[1] = test system: Experimental autoimmune encephalomyelitis (EAE); experiment: Experimental autoimmune encephalomyelitis (EAE) induced with MOG peptide 35-55 in CFA; type: in vivo, C57BL/6 mice
Procedure: EAE was induced in C57BL/6 mice by subcutaneous immunisation with 150 μg MOG peptide 35-55 emulsified in CFA supplemented with 5 mg/ml of killed Mycobacterium tuberculosis. Mice were injected intraperitoneally (i.p) with 500 ng of pertussis toxin (PT) on days 0 and 2. Mice were injected with either PBS or TCT (10 μg/mouse) s.c in the flank on day 1 post EAE induction and every 3-4 days thereafter (FIG. 15). Mice were observed daily for signs of clinical disease. Disease severity was recorded as follows: grade 0, normal; grade 1, limp tail; grade 2, wobbly gait; grade 3, hind limb weakness; grade 4, hind limb paralysis and grade 5, tetraparalysis/death.

In the case of `CC(=O)NC1C(OC2C3COC(O3)C(NC(C)=O)C2OC(C)C(=O)NC(C)C(=O)NC(CCC(=O)NC(CCCC(N)C(=O)NC(C)C(=O)O)C(=O)O)C(=O)O)OC(CO)C(O)C1O` (stereo not drawn) [TCT, N-acetylglucosaminyl-1,6-anhydro-N-acetylmuramylalanyl-γ-glutamyldiaminopimelylalanine], the “NOD1 detection of TCT” value (murine NOD1) is given as “did so effectively”, the “first clinical signs of disease post induction” value ([1]; TCT 10 μg/mouse s.c. day 1 and every 3-4 days, untreated mice 12 days) is given as 18 days and the severity of disease ([1]; TCT 10 μg/mouse s.c., versus untreated control mice) is given as “lower than that observed in the untreated control mice”.
